What was measured:
Format in all cases: in vivo
[1] = system: Polygonum convolvulus (POLCO); experiment: Pre-emergence herbicidal action against POLCO; conditions: dosage 320 g/ha
Procedure, shortened: (§1)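 Application rates ran to 320 g/ha or lower, with several dosages tested on the same weeds. The compound, as wettable powder or emulsion concentrate, is sprayed pre-emergence onto soil over sown seeds; greenhouse growth follows, and effect is rated visually after roughly 3 weeks.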

[2] = system: Brassica napus (BRSNW); conditions: 80 g/ha, crop plant compatibility, in comparison to untreated controls
Procedure, shortened: (§2)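 Crop injury rated visually in percent against untreated plants roughly 3 weeks after treatment (0% no effect, 100% plants dead). Compounds, as WP or EC with 0.5% additive in 600 l/ha water, were applied to the covering soil right after sowing; greenhouse growth. Suffixes a, b, c denote different dosages.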

[3] = system: Oryza sativa (ORYSA); conditions: pre-emergence, 80 g/ha, crop plant compatibility, in comparison to untreated controls
Procedure, shortened: as §2

[4] = system: Zea mays (ZEAMX); conditions: pre-emergence, 80 g/ha, crop plant compatibility, in comparison to untreated controls
Procedure, shortened: as §2

[5] = system: Triticum aestivum (TRZAS); conditions: pre-emergence, 80 g/ha, crop plant compatibility, in comparison to untreated controls
Procedure, shortened: as §2

[6] = system: Echinochloa crus-galli (ECHCG); experiment: Post-emergence herbicidal action against ECHCG
Procedure, shortened: (§3)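 Doses of 320 g/ha or lower, suffixes a, b and c marking different dosages, were applied post-emergence at the one-leaf stage in 600 l/ha water with 0.5% additive. Damage was assessed visually after about 3 weeks in the greenhouse.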

[7] = system: Viola tricolor (VIOTR); experiment: Post-emergence herbicidal action against VIOTR
Procedure, shortened: as §3

[8] = system: Viola tricolor (VIOTR); experiment: Pre-emergence herbicidal action against VIOTR
Procedure, shortened: as §1

[9] = system: Abutilon theophrasti (ABUTH); experiment: Post-emergence herbicidal action against ABUTH; conditions: 320 g/ha, visual rating about 3 weeks after treatment vs untreated controls (100% = plants have died, 0% = like control plants)
Procedure, shortened: as §3

[10] = system: Lolium rigidum (LOLRI); experiment: Post-emergence herbicidal action against LOLRI
Procedure, shortened: as §3

[11] = system: Avena fatua (AVEFA); experiment: Pre-emergence herbicidal action against AVEFA; conditions: 320 g/ha, visual scoring after about 3 weeks vs untreated controls
Procedure, shortened: as §1

[12] = system: Alopecurus myosuroides (ALOMY); experiment: Pre-emergence herbicidal action against ALOMY; conditions: 320 g/ha; scored visually after about 3 weeks; 100% = plants have died
Procedure, shortened: as §1

[13] = system: Amaranthus retroflexus (AMARE); experiment: Pre-emergence herbicidal action against AMARE; conditions: 320 g/ha, visual scoring after about 3 weeks vs untreated controls
Procedure, shortened: as §1

[14] = system: Setaria viridis (SETVI); experiment: Post-emergence herbicidal action against SETVI; conditions: dosage 320 g/ha
Procedure, shortened: as §3

[15] = system: Amaranthus retroflexus (AMARE); experiment: Post-emergence herbicidal action against AMARE
Procedure, shortened: as §3

[16] = system: Alopecurus myosuroides (ALOMY); experiment: Post-emergence herbicidal action against ALOMY; conditions: visual rating about 3 weeks after treatment vs untreated controls (100% = plants have died, 0% = like control plants)
Procedure, shortened: as §3

[17] = system: Avena fatua (AVEFA); experiment: Post-emergence herbicidal action against AVEFA; conditions: visual rating about 3 weeks after treatment
Procedure, shortened: as §3

[18] = system: Zea mays (ZEAMX); conditions: crop plant compatibility, 80 g/ha, effect vs untreated controls
Procedure, shortened: (§4)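 Foliar application at the one-leaf stage: WP/EC formulation, 0.5% additive, 600 l/ha water. Greenhouse-grown in sandy loam. Endpoint is visual % injury relative to untreated controls at about 3 weeks.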

[19] = system: Verconica persica (VERPE); experiment: Post-emergence herbicidal action against VERPE; conditions: 320 g/ha, VERPE
Procedure, shortened: as §3

[20] = system: Polygonum convolvulus (POLCO); experiment: Post-emergence herbicidal action against POLCO
Procedure, shortened: as §3

[21] = system: Setaria viridis (SETVI); experiment: Pre-emergence herbicidal action against SETVI; conditions: dosage 320 g/ha
Procedure, shortened: as §1

[22] = system: Pharbitis purpurea (PHBPU); experiment: Pre-emergence herbicidal action against PHBPU; conditions: dosage 320 g/ha
Procedure, shortened: as §1

[23] = system: Abutilon theophrasti (ABUTH); experiment: Pre-emergence herbicidal action against ABUTH; conditions: Dosage column 320 g/ha (title prints 3200 g/ha); scored visually after about 3 weeks; 100% = plants have died
Procedure, shortened: as §1

[24] = system: Matricaria inodora (MATIN); experiment: Pre-emergence herbicidal action against MATIN; conditions: dosage 320 g/ha
Procedure, shortened: as §1

[25] = system: Lolium rigidum (LOLRI); experiment: Pre-emergence herbicidal action against LOLRI
Procedure, shortened: as §1

[26] = system: Pharbitis purpurea (PHBPU); experiment: Post-emergence herbicidal action against PHBPU
Procedure, shortened: as §3

[27] = system: Oryza sativa (ORYSA); conditions: crop plant compatibility, 80 g/ha, effect in comparison to untreated controls
Procedure, shortened: as §4

[28] = system: Echinochloa crus-galli (ECHCG); experiment: Pre-emergence herbicidal action against ECHCG; conditions: dosage 320 g/ha
Procedure, shortened: as §1

[29] = system: Verconica persica (VERPE); experiment: Pre-emergence herbicidal action against VERPE
Procedure, shortened: as §1

[30] = 320 g/ha, visual rating about 3 weeks after treatment

O=C(O)COc1nn(-c2ncccc2Cl)c(-c2ccc(F)nc2)c1Br [Example I-26]
Pre-emergence action against POLCO in % [1]: 90%
Pre-emergence action against BRSNW in % [2]: 20%
Pre-emergence action against ORYSA in % [3]: 0%
Pre-emergence action against ZEAMX in % [4]: 0%
Pre-emergence action against TRZAS in % [5]: 0%
Post-emergence action against ECHCG in % ([6]; dosage 80 g/ha): 80%
Post-emergence action against ECHCG in % ([6]; dosage 320 g/ha): 80%
Post-emergence action against VIOTR in % ([7]; 320 g/ha): 80%
Pre-emergence action against VIOTR in % ([8]; 320 g/ha, Viola tricolor): 100%
Pre-emergence action against VIOTR in % ([8]; dosage 80 g/ha): 100%
Post-emergence action against ABUTH in % [9]: 90%
Post-emergence action against LOLRI in % ([10]; dosage 320 g/ha): 80%
Pre-emergence action against AVEFA in % [11]: 90%
Pre-emergence action against ALOMY [12]: 100%
Pre-emergence action against AMARE in % [13]: 100%
Post-emergence action against SETVI in % [14]: 90%
Post-emergence action against AMARE in % ([15]; 80 g/ha, visual rating about 3 weeks after treatment vs untreated controls (100% = plants have died, 0% = like control plants)): 80%
Post-emergence action against AMARE in % [15, 30]: 80%
Post-emergence action against ALOMY in % ([16]; 320 g/ha): 90%
Post-emergence action against AVEFA in % ([17]; 80 g/ha): 100%
Post-emergence action against AVEFA in % ([17]; 320 g/ha): 100%
Post-emergence action against ZEAMX in % [18]: 0%
Post-emergence action against VERPE in % [19]: 80%
Post-emergence action against POLCO in % ([20]; dosage 80 g/ha): 80%
Post-emergence action against POLCO in % ([20]; dosage 320 g/ha): 80%
Pre-emergence action against SETVI in % [21]: 100%

COC(=O)[C@@H](C)Oc1nn(-c2nc(F)ccc2F)c(-c2ccc(F)nc2)c1Br [Example I-319]
Pre-emergence action against PHBPU in % [22]: 90%
Pre-emergence action against POLCO in % [1]: 90%
Pre-emergence action against BRSNW in % [2]: 20%
Post-emergence action against ECHCG in % ([6]; dosage 80 g/ha): 80%
Post-emergence action against ECHCG in % ([6]; dosage 320 g/ha): 90%
Post-emergence action against VIOTR in % ([7]; 80 g/ha): 80%
Post-emergence action against VIOTR in % ([7]; 320 g/ha): 90%
Pre-emergence action against VIOTR in % ([8]; 320 g/ha, Viola tricolor): 100%
Pre-emergence action against VIOTR in % ([8]; dosage 80 g/ha): 100%
Pre-emergence action against ABUTH [23]: 80%
Post-emergence action against ABUTH in % [9]: 80%
Post-emergence action against LOLRI in % ([10]; dosage 80 g/ha): 80%
Post-emergence action against LOLRI in % ([10]; dosage 320 g/ha): 80%
Pre-emergence action against AVEFA in % [11]: 100%
Pre-emergence action against MATIN in % [24]: 90%
Pre-emergence action against LOLRI in % ([25]; dosage 80 g/ha): 90%
Pre-emergence action against LOLRI in % ([25]; dosage 320 g/ha): 100%
Pre-emergence action against ALOMY [12]: 100%
Pre-emergence action against AMARE in % [13]: 100%
Post-emergence action against SETVI in % [14]: 80%
Post-emergence action against AMARE in % [15, 30]: 80%
Post-emergence action against ALOMY in % ([16]; 80 g/ha): 90%
Post-emergence action against ALOMY in % ([16]; 320 g/ha): 90%
Post-emergence action against PHBPU in % ([26]; dosage 80 g/ha): 80%
Post-emergence action against PHBPU in % ([26]; dosage 320 g/ha): 90%
Post-emergence action against AVEFA in % ([17]; 80 g/ha): 80%
Post-emergence action against AVEFA in % ([17]; 320 g/ha): 80%
Post-emergence action against ORYSA in % [27]: 0%
Post-emergence action against ZEAMX in % [18]: 10%
Post-emergence action against VERPE in % [19]: 80%
Post-emergence action against POLCO in % ([20]; dosage 320 g/ha): 80%
Pre-emergence action against ECHCG in % [28]: 100%
Pre-emergence action against SETVI in % [21]: 100%
Pre-emergence action against VERPE in % ([29]; dosage 80 g/ha): 80%
Pre-emergence action against VERPE in % ([29]; dosage 320 g/ha): 90%

From patent US20240041042A1, “1-(PYRIDYL)-5-AZINYLPYRAZOLE DERIVATIVES, AND THEIR USE FOR CONTROL OF UNDESIRED PLANT GROWTH” (Bayer Aktiengesellschaft, priority 2020, published 2024)
